ChEMBL document CHEMBL3991601, “The target landscape of clinical kinase drugs” (Science, 2017)
Activity calls are given as the source filed them.

Experiments:
[1] = molecular target: T1, Eukaryotic translation initiation factor 5B (Homo sapiens, UniProt O60841)
T1 sequence (O60841 whole entry): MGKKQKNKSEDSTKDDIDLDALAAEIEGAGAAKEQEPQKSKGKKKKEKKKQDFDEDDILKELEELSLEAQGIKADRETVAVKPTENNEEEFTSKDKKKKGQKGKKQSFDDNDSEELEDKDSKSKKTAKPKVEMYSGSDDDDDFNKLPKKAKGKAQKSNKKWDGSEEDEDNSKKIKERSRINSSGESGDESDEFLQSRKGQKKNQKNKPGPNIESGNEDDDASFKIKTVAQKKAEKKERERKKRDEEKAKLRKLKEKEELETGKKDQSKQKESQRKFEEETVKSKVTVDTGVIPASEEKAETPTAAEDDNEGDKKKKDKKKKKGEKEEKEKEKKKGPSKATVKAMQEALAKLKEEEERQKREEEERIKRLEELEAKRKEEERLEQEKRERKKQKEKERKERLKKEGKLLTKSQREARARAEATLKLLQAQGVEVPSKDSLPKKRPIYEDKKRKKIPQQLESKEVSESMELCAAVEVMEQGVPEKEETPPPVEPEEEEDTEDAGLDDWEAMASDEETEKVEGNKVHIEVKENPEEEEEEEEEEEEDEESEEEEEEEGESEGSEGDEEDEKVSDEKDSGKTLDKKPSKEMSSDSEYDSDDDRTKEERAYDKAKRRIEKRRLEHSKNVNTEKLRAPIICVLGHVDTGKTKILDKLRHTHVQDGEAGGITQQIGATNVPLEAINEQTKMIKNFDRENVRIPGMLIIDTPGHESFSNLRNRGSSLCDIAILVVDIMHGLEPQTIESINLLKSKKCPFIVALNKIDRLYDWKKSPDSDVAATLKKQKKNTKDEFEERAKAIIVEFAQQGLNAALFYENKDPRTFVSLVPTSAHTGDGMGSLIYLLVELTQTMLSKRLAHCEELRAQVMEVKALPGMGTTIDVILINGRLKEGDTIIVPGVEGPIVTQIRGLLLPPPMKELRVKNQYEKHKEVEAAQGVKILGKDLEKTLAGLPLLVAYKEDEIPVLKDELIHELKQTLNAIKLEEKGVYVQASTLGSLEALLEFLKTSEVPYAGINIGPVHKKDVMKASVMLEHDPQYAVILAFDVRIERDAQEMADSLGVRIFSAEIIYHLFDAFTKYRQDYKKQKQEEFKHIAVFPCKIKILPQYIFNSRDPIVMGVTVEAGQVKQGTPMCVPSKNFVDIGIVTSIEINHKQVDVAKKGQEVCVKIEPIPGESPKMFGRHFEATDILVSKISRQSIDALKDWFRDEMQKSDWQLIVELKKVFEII

[2] = molecular target: PAS domain-containing serine/threonine-protein kinase (Homo sapiens, UniProt Q96RG2)
[3] = molecular target: Phosphatidylethanolamine-binding protein 1 (Homo sapiens, UniProt P30086)
[4] = molecular target: Dual specificity testis-specific protein kinase 2 (Homo sapiens, UniProt Q96S53)
[5] = molecular target: T2, Cyclin-dependent kinase-like 5 (Homo sapiens, UniProt O76039)
T2 sequence (O76039 whole entry): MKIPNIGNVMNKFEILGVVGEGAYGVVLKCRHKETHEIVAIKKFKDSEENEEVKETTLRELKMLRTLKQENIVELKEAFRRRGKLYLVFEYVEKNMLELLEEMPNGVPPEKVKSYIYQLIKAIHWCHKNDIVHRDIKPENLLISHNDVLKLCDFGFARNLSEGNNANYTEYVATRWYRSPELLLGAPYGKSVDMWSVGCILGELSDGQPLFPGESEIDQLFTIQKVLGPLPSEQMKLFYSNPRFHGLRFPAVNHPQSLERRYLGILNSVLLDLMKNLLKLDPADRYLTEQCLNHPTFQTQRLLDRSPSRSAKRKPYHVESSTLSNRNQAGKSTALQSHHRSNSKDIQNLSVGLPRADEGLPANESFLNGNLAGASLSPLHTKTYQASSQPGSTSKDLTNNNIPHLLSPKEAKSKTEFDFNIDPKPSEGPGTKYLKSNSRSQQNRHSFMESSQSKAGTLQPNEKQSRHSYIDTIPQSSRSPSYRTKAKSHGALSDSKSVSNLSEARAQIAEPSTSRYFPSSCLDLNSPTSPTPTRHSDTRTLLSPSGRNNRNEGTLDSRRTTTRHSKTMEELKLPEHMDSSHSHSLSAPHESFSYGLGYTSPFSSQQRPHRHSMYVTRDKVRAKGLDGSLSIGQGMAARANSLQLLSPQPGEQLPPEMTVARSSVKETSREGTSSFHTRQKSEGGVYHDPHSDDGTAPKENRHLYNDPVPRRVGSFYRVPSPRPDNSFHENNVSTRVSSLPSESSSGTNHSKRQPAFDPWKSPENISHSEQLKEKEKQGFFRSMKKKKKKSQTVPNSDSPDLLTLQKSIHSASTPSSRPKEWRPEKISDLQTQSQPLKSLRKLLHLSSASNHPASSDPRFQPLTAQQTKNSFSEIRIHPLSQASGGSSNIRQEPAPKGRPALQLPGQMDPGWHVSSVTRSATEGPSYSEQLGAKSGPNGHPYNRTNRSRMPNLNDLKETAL

[6] = molecular target: Uncharacterized aarF domain-containing protein kinase 5 (Homo sapiens, UniProt Q3MIX3)

Measured: Kd
Further: in the data inactive means no Kd found up to 30 µM.

Sequence of Uncharacterized aarF domain-containing protein kinase 5 (Q3MIX3 whole entry, the tested form may be a part): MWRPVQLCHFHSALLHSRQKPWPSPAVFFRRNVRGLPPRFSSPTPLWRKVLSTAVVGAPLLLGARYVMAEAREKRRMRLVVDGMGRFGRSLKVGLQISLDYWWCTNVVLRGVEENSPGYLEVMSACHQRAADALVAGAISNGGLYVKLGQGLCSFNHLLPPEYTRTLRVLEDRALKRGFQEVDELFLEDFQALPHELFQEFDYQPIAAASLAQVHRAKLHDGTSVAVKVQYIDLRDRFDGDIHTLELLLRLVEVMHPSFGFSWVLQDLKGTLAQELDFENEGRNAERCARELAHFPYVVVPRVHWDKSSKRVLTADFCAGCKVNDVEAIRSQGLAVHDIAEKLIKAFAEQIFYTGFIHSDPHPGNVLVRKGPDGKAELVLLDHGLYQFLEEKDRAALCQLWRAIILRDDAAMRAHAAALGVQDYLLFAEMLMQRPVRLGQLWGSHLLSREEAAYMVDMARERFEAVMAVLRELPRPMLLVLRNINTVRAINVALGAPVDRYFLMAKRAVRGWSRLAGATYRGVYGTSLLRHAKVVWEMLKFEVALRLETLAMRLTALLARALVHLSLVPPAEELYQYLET
Sequence of PAS domain-containing serine/threonine-protein kinase (Q96RG2 whole entry, the tested form may be a part): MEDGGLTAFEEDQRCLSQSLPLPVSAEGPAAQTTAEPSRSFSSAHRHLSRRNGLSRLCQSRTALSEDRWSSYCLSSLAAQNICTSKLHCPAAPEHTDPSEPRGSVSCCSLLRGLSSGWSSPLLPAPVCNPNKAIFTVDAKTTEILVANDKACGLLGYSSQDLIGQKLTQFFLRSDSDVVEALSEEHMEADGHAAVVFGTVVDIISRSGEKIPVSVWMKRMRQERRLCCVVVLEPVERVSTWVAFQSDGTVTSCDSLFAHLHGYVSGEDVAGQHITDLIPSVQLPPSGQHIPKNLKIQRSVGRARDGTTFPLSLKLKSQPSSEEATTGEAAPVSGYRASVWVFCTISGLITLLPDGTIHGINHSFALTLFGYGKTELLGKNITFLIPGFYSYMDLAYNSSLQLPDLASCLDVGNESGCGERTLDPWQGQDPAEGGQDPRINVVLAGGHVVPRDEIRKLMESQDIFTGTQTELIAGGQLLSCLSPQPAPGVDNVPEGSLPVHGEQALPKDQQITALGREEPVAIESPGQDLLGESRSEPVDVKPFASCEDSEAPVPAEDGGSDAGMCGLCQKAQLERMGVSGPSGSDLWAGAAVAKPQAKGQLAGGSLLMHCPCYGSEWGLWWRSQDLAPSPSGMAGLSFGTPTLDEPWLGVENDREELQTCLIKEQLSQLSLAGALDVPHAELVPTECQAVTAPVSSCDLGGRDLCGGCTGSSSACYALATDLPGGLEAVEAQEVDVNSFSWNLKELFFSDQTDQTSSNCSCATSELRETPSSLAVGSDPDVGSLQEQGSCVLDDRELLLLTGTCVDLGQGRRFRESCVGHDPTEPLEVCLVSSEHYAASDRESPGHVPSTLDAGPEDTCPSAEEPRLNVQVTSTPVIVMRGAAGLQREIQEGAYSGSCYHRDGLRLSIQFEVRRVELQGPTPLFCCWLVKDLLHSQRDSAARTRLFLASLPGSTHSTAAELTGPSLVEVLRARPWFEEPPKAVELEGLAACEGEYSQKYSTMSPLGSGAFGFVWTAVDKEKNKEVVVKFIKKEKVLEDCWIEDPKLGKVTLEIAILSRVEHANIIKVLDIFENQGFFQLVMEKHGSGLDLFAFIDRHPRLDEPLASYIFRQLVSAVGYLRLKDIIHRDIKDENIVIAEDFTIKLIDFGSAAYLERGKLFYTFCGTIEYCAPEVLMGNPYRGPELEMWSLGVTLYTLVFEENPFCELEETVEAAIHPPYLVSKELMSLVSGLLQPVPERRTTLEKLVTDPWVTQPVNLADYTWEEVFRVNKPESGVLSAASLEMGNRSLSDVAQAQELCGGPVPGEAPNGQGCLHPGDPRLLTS
Sequence of Dual specificity testis-specific protein kinase 2 (Q96S53 whole entry): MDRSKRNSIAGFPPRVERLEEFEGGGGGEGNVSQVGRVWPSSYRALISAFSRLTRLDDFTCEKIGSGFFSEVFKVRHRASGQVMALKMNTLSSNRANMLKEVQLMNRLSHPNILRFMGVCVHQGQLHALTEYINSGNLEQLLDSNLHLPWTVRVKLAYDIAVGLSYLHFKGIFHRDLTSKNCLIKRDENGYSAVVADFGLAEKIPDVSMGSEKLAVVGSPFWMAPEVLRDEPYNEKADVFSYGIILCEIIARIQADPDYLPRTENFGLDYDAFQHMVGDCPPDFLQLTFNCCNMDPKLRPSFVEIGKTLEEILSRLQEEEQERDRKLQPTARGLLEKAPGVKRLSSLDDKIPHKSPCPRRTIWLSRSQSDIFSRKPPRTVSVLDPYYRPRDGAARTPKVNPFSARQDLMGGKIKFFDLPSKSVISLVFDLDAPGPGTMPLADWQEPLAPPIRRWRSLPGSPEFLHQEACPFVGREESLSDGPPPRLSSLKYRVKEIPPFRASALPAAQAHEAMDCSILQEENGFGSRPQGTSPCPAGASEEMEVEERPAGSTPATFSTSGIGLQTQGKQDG
Sequence of Phosphatidylethanolamine-binding protein 1 (P30086 whole entry): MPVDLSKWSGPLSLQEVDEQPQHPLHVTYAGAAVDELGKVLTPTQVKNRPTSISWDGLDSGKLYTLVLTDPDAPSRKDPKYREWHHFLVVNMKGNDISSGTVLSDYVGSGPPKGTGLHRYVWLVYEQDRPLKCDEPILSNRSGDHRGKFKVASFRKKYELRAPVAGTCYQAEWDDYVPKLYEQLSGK

CC(=O)Nc1cccc(-n2c(=O)n(C3CC3)c(=O)c3c(Nc4ccc(I)cc4F)n(C)c(=O)c(C)c32)c1 [TRAMETINIB]
inactive: [1] > 30 µM | [2] > 30 µM | [3] > 30 µM | [4] > 30 µM | [5] > 30 µM | [6] > 30 µM
